Test results published in patent US20060052396A1, “Arylamines for the treatment of conditions associated with gsk-3” (priority 2001, published 2006).

melting point: 221.5 to 223 °C
SMILES: CN(C)S(=O)(=O)c1ccccc1-c1cnc(N)c(C(=O)Nc2cccnc2)n1 [Example 235, 3-Amino-6-{2-[(dimethylamino)sulfonyl]phenyl}-N-pyridin-3-ylpyrazine-2-carboxamide]
